Where a name gives a salt, the structure may show the parent alone. Values belong to the compound of their own block, whether it stands above or below them.
Tests used:
acute myocardial infarct = test: Rat acute myocardial infarct model (60 min LAD occlusion, reperfusion); type: in vivo, Sprague-Dawley rats; details: 1.0 mg/kg IV at 90 min post-reperfusion; 24 hr; vs vehicle
Protocol: A rodent model of acute myocardial infarct, in which the proximal left anterior descending coronary artery (LAD) is occluded for 60 min followed by reperfusion, was used to determine whether test agents reduced infarct size at 24 hours.
Myocardial infarcts were created in Sprague-Dawley rats (200-300 g body weight) by a 60 min occlusion of the LAD followed by LAD reperfusion. At 90 min post-reperfusion, either vehicle alone or test agents were injected IV. At 24 hr post-treatment, the ischemic zone (area at-risk, AAR) was delineated by re-ligation of the LAD followed by IV injection of alkali blue dye, after which hearts were sectioned along the short axis and stained using triphenyltetrazolium chloride to delineate viable from infarcted myocardium. Photographic images were then analyzed using morphometric software to calculate infarct area as a percent of the at-risk area.
The following studies were performed as described above, except that the timing of 3-[2,4-diamino-6-(3-hydroxyphenyl)pteridin-7-yl] phenol dihydrochloride salt administration (at 0.1 mg/kg) was varied. In one group, 3-[2,4-diamino-6-(3-hydroxyphenyl)pteridin-7-yl] phenol dihydrochloride salt was administered at both 60 and 240 min post-occlusion.
In a porcine MI model (90 min of LAD occlusion followed by complete reperfusion), a single 0.3 mg/kg IV bolus delivered 30 min post-reperfusion reduced infarct size by […] vs. controls (40% vs. 56%, N=12-13, P=0.03).

recombinant human c-Src = target: T1, recombinant human c-Src (Homo sapiens, UniProt P12931); test: c-Src kinase inhibition, KinaseGlo residual ATP; type: biochemical; details: ATP 3 μM, 90 minutes at room temperature
T1 construct: purchased Panvera, Madison Wis
T1 sequence (P12931 whole entry): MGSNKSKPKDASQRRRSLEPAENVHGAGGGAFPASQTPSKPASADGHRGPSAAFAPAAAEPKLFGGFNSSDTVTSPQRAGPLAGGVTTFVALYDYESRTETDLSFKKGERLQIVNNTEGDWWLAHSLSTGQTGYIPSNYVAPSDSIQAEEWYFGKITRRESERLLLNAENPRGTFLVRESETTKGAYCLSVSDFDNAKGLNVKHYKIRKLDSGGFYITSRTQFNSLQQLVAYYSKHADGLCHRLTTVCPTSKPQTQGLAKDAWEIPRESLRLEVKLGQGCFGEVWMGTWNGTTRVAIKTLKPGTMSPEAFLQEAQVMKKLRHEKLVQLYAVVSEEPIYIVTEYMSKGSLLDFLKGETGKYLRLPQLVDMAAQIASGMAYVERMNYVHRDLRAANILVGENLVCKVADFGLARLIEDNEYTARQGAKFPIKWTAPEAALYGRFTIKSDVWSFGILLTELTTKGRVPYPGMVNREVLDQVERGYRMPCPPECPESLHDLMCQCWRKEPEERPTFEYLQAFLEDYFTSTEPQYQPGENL
Source text: (§1) The ability of compounds to inhibit the activity of two Src-family kinases (c-Src and Yes) was directly tested.

recombinant human Yes = target: T2, recombinant human Yes (Homo sapiens, UniProt P07947); test: Yes kinase inhibition, KinaseGlo residual ATP; type: biochemical; details: ATP 3 μM, 90 minutes at room temperature
T2 construct: purchased Panvera, Madison Wis
T2 sequence (P07947 whole entry): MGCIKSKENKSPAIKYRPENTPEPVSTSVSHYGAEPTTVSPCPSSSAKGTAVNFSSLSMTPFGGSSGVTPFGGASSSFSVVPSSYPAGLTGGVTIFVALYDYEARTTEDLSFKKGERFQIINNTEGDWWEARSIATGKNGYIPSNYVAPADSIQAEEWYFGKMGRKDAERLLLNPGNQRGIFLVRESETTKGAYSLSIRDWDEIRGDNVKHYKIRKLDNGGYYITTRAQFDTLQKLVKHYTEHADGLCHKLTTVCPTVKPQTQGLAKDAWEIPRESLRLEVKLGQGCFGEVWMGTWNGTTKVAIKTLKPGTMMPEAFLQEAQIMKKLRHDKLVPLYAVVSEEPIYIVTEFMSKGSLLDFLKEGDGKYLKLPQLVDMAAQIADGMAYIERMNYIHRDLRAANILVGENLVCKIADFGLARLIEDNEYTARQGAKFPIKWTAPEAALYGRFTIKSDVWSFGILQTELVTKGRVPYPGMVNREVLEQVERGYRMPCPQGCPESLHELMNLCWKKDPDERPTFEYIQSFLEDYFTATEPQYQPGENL
Source text: as §1

[1] = target: T3, human p120γ subunit of PI3K (Homo sapiens, UniProt P48736); test: PI3K p120γ enzymatic activity at two concentrations (Upstate Group); type: biochemical; details: 100% = no inhibition, 0% = complete inhibition; for remaining activity at 0.5 µM: read-out: Percent Control Value at 0.5 μM; for remaining activity at 5 µM: read-out: Percent Control Value at 5 μM
T3 construct: Upstate Group, Charlottesville, Va; (ran the assay under contract)
T3 sequence (P48736 whole entry): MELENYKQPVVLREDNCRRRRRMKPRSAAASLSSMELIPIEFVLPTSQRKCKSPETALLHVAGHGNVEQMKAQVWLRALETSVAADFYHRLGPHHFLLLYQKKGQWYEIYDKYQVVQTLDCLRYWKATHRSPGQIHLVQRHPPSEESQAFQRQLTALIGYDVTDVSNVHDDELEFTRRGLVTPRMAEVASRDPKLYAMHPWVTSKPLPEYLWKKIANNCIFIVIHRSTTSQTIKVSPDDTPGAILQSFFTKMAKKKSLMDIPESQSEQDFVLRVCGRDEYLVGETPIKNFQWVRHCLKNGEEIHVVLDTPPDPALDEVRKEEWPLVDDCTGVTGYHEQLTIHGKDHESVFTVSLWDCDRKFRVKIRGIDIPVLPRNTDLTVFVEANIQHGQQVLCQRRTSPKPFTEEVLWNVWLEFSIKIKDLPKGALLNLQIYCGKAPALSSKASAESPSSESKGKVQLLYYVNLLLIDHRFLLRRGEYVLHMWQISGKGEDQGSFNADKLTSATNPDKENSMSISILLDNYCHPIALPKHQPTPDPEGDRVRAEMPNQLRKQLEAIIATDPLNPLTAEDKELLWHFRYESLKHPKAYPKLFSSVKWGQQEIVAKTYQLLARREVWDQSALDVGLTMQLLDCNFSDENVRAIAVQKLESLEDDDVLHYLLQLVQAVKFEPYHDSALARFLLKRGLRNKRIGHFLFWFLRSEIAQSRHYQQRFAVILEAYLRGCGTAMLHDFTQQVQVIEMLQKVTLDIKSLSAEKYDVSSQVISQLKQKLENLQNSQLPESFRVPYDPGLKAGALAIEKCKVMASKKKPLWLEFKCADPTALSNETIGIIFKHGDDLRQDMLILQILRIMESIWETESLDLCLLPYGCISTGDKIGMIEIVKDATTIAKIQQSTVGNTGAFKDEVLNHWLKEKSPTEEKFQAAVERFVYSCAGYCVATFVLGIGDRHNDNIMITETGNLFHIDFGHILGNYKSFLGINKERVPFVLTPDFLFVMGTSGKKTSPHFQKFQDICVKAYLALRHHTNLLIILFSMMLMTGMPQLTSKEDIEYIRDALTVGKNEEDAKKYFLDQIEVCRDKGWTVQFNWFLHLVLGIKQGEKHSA
Protocol: The ability of compounds to inhibit the activity of PI3K kinase was determined using biochemical assays. In a first assay, compounds were tested at two concentrations (0.5 and 5 μM) for their ability to inhibit enzymatic activity of the human p120γ subunit of PI3K (the assay being performed under contract by Upstate Group, Charlottesville, Va.).

[2] = target: recombinant phosphatidylinositol 3-kinase-p120γ (PI3K) (Homo sapiens, UniProt P48736); test: biochemical
Chain of recombinant phosphatidylinositol 3-kinase-p120γ (PI3K) (P48736 whole entry): as above

VEGF-induced edema = test: Miles assay, VEGF-induced edema; type: in vivo, Sprague-Dawley rats; details: VEGF 200 ng/site, 45 min, vehicle 12
Protocol: A rodent model of vascular edema, the Miles assay, was used to screen compounds for their ability to inhibit VEGF-induced edema.
Sprague-Dawley rats were first injected IV with vehicle alone or test agent, followed by IV injection of Evans blue dye, followed by intradermal injections of saline and VEGF (200 ng/injection site) along both shaved flanks. After 45 min, intradermal injection sites were photographed and then scored by a blinded observer for extravasation of Evans blue dye into the dermis (dermal bluing) according to a 4 point scoring system (3=maximal bluing, ≧75% of response in vehicle-treated animals; 2=medium bluing, >25% but <75% of vehicle-treated animals; 1=minimal bluing, ≦25% of vehicle-treated animals; 0=bluing equivalent to saline injection sites on same animal). Individual scores for 4 injection sites (from 2 separate animals) were summed and are shown as a scale of 0-12, with a lower score indicating the greater anti-edema activity; note that all vehicle-treated groups score a value of 12, based on the scoring system outlined above.

cerebral stroke = test: Cerebral stroke model, permanent middle cerebral artery occlusion; type: in vivo, mice; details: 1 mg/kg BW IV 60 min after ligation, 24 hours; for % Infarct reduction: vs vehicle
Protocol: A rodent model of cerebral stroke, in which the middle cerebral artery is permanently occluded, was used to determine whether test agents reduced infarct size at 24 hours.
Cerebral strokes were created in mice by permanent ligation of the middle cerebral artery using a cauterizing tool, followed 60 min later by IV injection of either vehicle alone (50% PEG400 in water) or test agents (at 1 mg/kg BW). Twenty four hours later, brains were sectioned and stained using triphenyltetrazolium chloride to delineate viable from infarcted tissue. Photographic images were then analyzed using morphometric software to calculate infarct area.

SMILES: Cl.Cl.Nc1nc(N)c2nc(-c3cccc(O)c3)c(-c3cccc(O)c3)nc2n1
% Infarct reduction (acute myocardial infarct): Not significant

SMILES: Oc1ccc(CNc2ncnc3ncc(-c4ccccc4)nc23)cc1O
IC50 (recombinant human c-Src): 420 nM

IC50 (recombinant human Yes): 1000 nM | IC50 (recombinant human c-Src): 1600 nM
SMILES: Nc1cncc2nc(-c3ccc(O)c(O)c3)c(-c3ccc(O)c(O)c3)nc12 [2,3-Bis(3,4-dihydroxyphenyl)-pyrido[3,4-b]pyrazin-8-ylamine hydrochloride salt]

remaining activity at 0.5 µM [1]: 101% | remaining activity at 5 µM [1]: 90%
SMILES: Nc1cncc2nc(-c3cccc(O)c3)c(-c3cccc(O)c3)nc12 [2,3-Bis(3-hydroxyphenyl)-pyrido[3,4-b]pyrazin-8-ylamine hydrochloride salt]

remaining activity at 0.5 µM [1]: 101% | remaining activity at 5 µM [1]: 94%
SMILES: Nc1cncc2nc(-c3ccc(O)cc3)c(-c3ccc(O)cc3)nc12 [2,3-Bis(4-hydroxyphenyl)-pyrido[3,4-b]pyrazin-8-ylamine]

IC50 [2]: 48000 nM | remaining activity at 0.5 µM [1]: 102% | remaining activity at 5 µM [1]: 99%
SMILES: Nc1nc(O)c2nc(-c3cccc(O)c3)c(-c3cccc(O)c3)nc2n1 [2-Amino-6,7-bis-(3-hydroxy-phenyl)-pteridin-4-ol]

IC50 (recombinant human Yes): 303 nM | IC50 (recombinant human c-Src): 337 nM
SMILES: O=C(Nc1ccccc1-c1cc2ccccc2[nH]1)c1ccc(O)c(O)c1 [3,4-Dihydroxy-N-(2-(1H-indol-2-yl)-phenyl)-benzamide]

IC50 (recombinant human Yes): 6800 nM | IC50 (recombinant human c-Src): 12000 nM
SMILES: Nc1nnc2cc(-c3cccc(O)c3)ccc2n1 [3-(3-Amino-benzo[1,2,4]triazin-7-yl)-phenol]

SMILES: O=C(Nc1ccccc1-c1cc2ccccc2[nH]1)c1cccnc1C(=O)O [3-[2-(1H-Indol-2-yl)-phenyicarbamoyl]-pyridine-2-carboxylic acid]
Score (scale of 0-12) (VEGF-induced edema; 0.5 mg/kg IV): 5

IC50 (recombinant human c-Src): 317 nM
SMILES: Oc1ccc(CCNc2ncnc3ncc(-c4ccccc4)nc23)cc1O [4-[2-(6-Phenyl-pteridin-4-ylamino)-ethyl]benzene-1,2-diol]

SMILES: Cl.Nc1ncnc2nc(-c3ccc(O)c(O)c3)c(-c3ccc(O)c(O)c3)nc12 [4-[4-amino-6-(3,4-dihydroxyphenyl)pteridin-7-yl]benzene-1,2-diol hydrochloride salt]
IC50 (recombinant human c-Src): 1300 nM | Score (scale of 0-12) (VEGF-induced edema; 0.01 mg/kg IV): 6 | Score (scale of 0-12) (VEGF-induced edema; 0.1 mg/kg IV): 3 | Score (scale of 0-12) (VEGF-induced edema; 1 mg/kg IV): 5

SMILES: Nc1ncnc2nc(-c3ccc(O)c(O)c3)c(-c3ccc(O)c(O)c3)nc12 [4-[4-amino-6-(3,4-dihydroxyphenyl)pteridin-7-yl]benzene-1,2-diol methanesulfonate salt]
IC50 (recombinant human c-Src): 800 nM

SMILES: Nc1ncnc2nc(-c3ccc(O)c(O)c3)c(-c3ccc(O)c(O)c3)nc12 [4-[4-amino-6-(3,4-dihydroxyphenyl)pteridin-7-yl]benzene-1,2-diol]
IC50 [2]: 968 nM

SMILES: Nc1ncnc2nc(-c3cccc(O)c3)c(-c3cccc(O)c3)nc12 [6,7-Bis(3-hydroxyphenyl)-pteridine-4-ylamine hydrobromide salt]
IC50 (recombinant human c-Src): 8800 nM

remaining activity at 0.5 µM [1]: 94% | remaining activity at 5 µM [1]: 46%
SMILES: Nc1nc(N)c2nc(-c3ccc(O)cc3)c(-c3ccc(O)cc3)nc2n1 [6,7-Bis(4-hydroxyphenyl)-pteridine-2,4-diamine]

SMILES: Nc1ncnc2nc(-c3ccccn3)c(-c3ccccn3)nc12 [6,7-Di-pyridin-2-yl-pteridin-4-ylamine]
% Infarct reduction (cerebral stroke): Not significant

SMILES: Nc1nc(N)c2nc(-c3ccc(O)c(O)c3)c(-c3ccc(O)c(O)c3)nc2n1 [6,7-bis(3,4-dihydroxyphenyl)-pteridine-2,4-diamine dihydrochloride salt]
IC50 (recombinant human Yes): 1100 nM | IC50 (recombinant human c-Src): 2600 nM

SMILES: Nc1nc(N)c2nc(-c3ccc(O)c(O)c3)c(-c3ccc(O)c(O)c3)nc2n1 [6,7-bis(3,4-dihydroxyphenyl)-pteridine-2,4-diamine]
IC50 [2]: 273 nM | remaining activity at 0.5 µM [1]: 66% | remaining activity at 5 µM [1]: 12%

IC50 (recombinant human Yes): 900 nM | IC50 (recombinant human c-Src): 1800 nM
SMILES: Oc1nc(O)c2nc(-c3ccc(O)c(O)c3)c(-c3ccc(O)c(O)c3)nc2n1 [6,7-bis(3,4-dihydroxyphenyl)pteridine-2,4-diol]

SMILES: Nc1ncnc2nc(-c3cccc(O)c3)c(-c3cccc(O)c3)nc12 [6,7-bis(3-hydroxyphenyl)-pteridin-4-ylamine hydrochloride salt]
IC50 (recombinant human Yes): 6300 nM | IC50 (recombinant human c-Src): 10000 nM

SMILES: Nc1ncnc2nc(-c3cccc(O)c3)c(-c3cccc(O)c3)nc12 [6,7-bis(3-hydroxyphenyl)-pteridin-4-ylamine]
IC50 [2]: 3900 nM | remaining activity at 0.5 µM [1]: 97% | remaining activity at 5 µM [1]: 71%

IC50 (recombinant human Yes): 3800 nM | IC50 (recombinant human c-Src): 27600 nM
SMILES: Nc1ncc2nc(-c3cccc(O)c3)c(-c3cccc(O)c3)nc2n1 [6,7-bis(3-hydroxyphenyl)-pteridine-2-amine]

SMILES: Nc1ncnc2nc(-c3ccc(O)cc3)c(-c3ccc(O)cc3)nc12 [6,7-bis(4-hydroxyphenyl)-pteridin-4-ylamine]
remaining activity at 0.5 µM [1]: 102% | remaining activity at 5 µM [1]: 85%

SMILES: Nc1nc(N)c2nc(CNCc3ccc4ccccc4c3)cnc2n1 [6-{[(Naphthalen-2-ylmethyl)-amino]-methyl-pteridine-2,4-diamine]
Score (scale of 0-12) (VEGF-induced edema; 0.1 mg/kg IV): 4

IC50 (recombinant human Yes): 7000 nM | IC50 (recombinant human c-Src): 9200 nM
SMILES: Nc1nnc2cc(-c3ccccc3C(F)(F)F)ccc2n1 [7-(2-Trifluoromethyl-phenyl)-benzo[1,2,4]triazin-3-ylamine]

IC50 (recombinant human Yes): 9300 nM | IC50 (recombinant human c-Src): 900 nM
SMILES: Nc1nnc2cc(-c3cccc4ccccc34)ccc2n1 [7-Naphthalen-1-yl-benzo[1,2,4]triazin-3-ylamine]

SMILES: Cc1ccc(-c2nn(C(C)(C)C)c3ncnc(N)c23)cc1 [PP1, reference compound]
Infarct area in mm^3 (mean ± SEM) (cerebral stroke): 35.4 ± 6.4 mm^3 | % Infarct reduction (cerebral stroke): Not significant

SMILES: CN(C)S(=O)(=O)c1ccc2c(c1)/C(=C/c1cc3c([nH]1)CCCC3)C(=O)N2 [SU6656, reference compound]
% Infarct reduction (cerebral stroke): Not significant

IC50 (recombinant human c-Src): 294 nM
SMILES: Cc1cccc(C)c1-c1cc(C)c2nc(Nc3ccccc3)nnc2c1 [[7-(2,6-Dimethyl-phenyl)-5-methyl-benzo[1,2,4]triazin-3-yl]-phenyl-amine]

remaining activity at 0.5 µM [1]: 101% | remaining activity at 5 µM [1]: 81%
SMILES: Nc1nc(N)c2nc(-c3ccccc3)c(-c3ccccc3)nc2n1 [compound B, 6,7-diphenyl-pteridine-2,4-diamine]

SMILES: Nc1ccc2nc(-c3ccc(O)c(O)c3)c(-c3ccc(O)c(O)c3)nc2n1 [compound C, 2,3-Bis(3,4-dihydroxyphenyl)-pyrido[2,3-b]pyrazin-6-ylamine dihydrochloride salt]
IC50 (recombinant human Yes): 756 nM | IC50 (recombinant human c-Src): 1300 nM

Reference: US20050282814A1, “Vasculostatic agents and methods of use thereof” (TargeGen, Inc., priority 2002, published 2005)
